According to publication PMC10803810, “Interaction of designed cationic antimicrobial peptides with the outer membrane of gram-negative bacteria” (Scientific Reports, 2024):

Legend:
[1] = system: laboratory strain of B. subtilis; experiment: Minimum inhibitory concentration (MIC) assay; type: cell-based, Bacillus subtilis; conditions: MHB, 10^5 CFU/well, peptide 0-50 μM, 37 °C, 20 h, OD600; average of n = 6 replicates from N = 3 biological experiments
Description: (§1) Figure 1 Minimum inhibitory concentrations (MICs) for the present peptide library against three clinical isolates of MDR P. aeruginosa and a laboratory strain of B. subtilis. Increasing concentrations of peptides were independently incubated with bacterial cells for 20 h. MIC was calculated based on bacterial growth in an untreated control and in 1% Triton. Data represent the average from n = 6 replicates from N = 3 biological experiments performed on different days; error bars depict the standard error of the mean. Asterisk denotes MIC values beyond the highest tested concentration (50 μM). TEXT PRINTED IN THE PICTURE: Ponericin W1: Isolate 004B1-3 MIC (μM): 1.17; Isolate 035B7-1 MIC (μM): 2.86; Isolate 014B2-1 MIC (μM): 4.68; B. subtilis MIC (μM): 0.65 | PonAmp: Isolate 004B1-3 MIC (μM): 1.56; Isolate 035B7-1 MIC (μM): 2.60; Isolate 014B2-1 MIC (μM): 3.12; B. subtilis MIC (μM): 0.52 | PonN: Isolate 004B1-3 MIC (μM): 1.56; Isolate 035B7-1 MIC (μM): 2.60; Isolate 014B2-1 MIC (μM): 5.20; B. subtilis MIC (μM): 1.56 | PonC: Isolate 004B1-3 MIC (μM): 1.30; Isolate 035B7-1 MIC (μM): 1.56; Isolate 014B2-1 MIC (μM): 2.86; B. subtilis MIC (μM): 1.30 | PonAmp 2A: Isolate 004B1-3 MIC (μM): 11.46; Isolate 035B7-1 MIC (μM): 50; Isolate 014B2-1 MIC (μM): 50; B. subtilis MIC (μM): 0.85 | PonN 2A: Isolate 004B1-3 MIC (μM): 1.82; Isolate 035B7-1 MIC (μM): 1.82; Isolate 014B2-1 MIC (μM): 5.20; B. subtilis MIC (μM): 2.08 | PonC 2A: Isolate 004B1-3 MIC (μM): 2.08; Isolate 035B7-1 MIC (μM): 3.64; Isolate 014B2-1 MIC (μM): 6.25; B. subtilis MIC (μM): 1.04 | PonAmp 3A: B. subtilis MIC (μM): 0.78 | PonN 3A: Isolate 004B1-3 MIC (μM): 4.69; Isolate 035B7-1 MIC (μM): 16.67; Isolate 014B2-1 MIC (μM): 23; B. subtilis MIC (μM): 8.30 | PonC 3A: Isolate 004B1-3 MIC (μM): 5.73; Isolate 035B7-1 MIC (μM): 33.33; Isolate 014B2-1 MIC (μM): 50; B. subtilis MIC (μM): 1.56 | PonAmp 4A: B. subtilis MIC (μM): 3.12 | PonN 4A: B. subtilis MIC (μM): 12.5 | PonC 4A: B. subtilis MIC (μM): 10.42
(§2) Three clinical isolates of MDR P. aeruginosa were previously obtained from CF patients with chronic infection at the Hospital for Sick Children [Research Ethics Board (REB) #1000019444] (Toronto, Canada) and selected for use in this work along with a laboratory strain of B. subtilis. Serial dilutions of peptides (10 μL) were prepared to achieve concentrations from 50 to 0 μM on a sterile 96-well clear bottom plate. Cells were resuspended in Mueller − Hinton Broth (MHB) and added at 10^5 CFU/well to achieve a final volume of 100 μL. Peptide and bacteria were allowed to incubate at 37 °C for 20 h. OD600 was measured at the end of the incubation period. Reports of MIC are background subtracted from an MHB-only control.

[2] = system: MDR P. aeruginosa clinical isolate 035B7-1; experiment: Minimum inhibitory concentration (MIC) assay; type: cell-based, Pseudomonas aeruginosa; conditions: MHB, 10^5 CFU/well, peptide 0-50 μM, 37 °C, 20 h, OD600; average of n = 6 replicates from N = 3 biological experiments; asterisk = beyond 50 μM
Description: as §1
(§3) Clinical isolates of P. aeruginosa [Research Ethics Board (REB) #1000019444] were obtained with informed consent from CF patients with chronic infection followed at the Hospital for Sick Children (Toronto, Canada)[66]. Consent was obtained from a parent or legal guardian if not of age. All methods were performed in accordance with the relevant guidelines and regulations for research involving human subjects at the Hospital for Sick Children. Antimicrobial susceptibility testing was performed as per the Clinical Laboratory Standards Institute (CLSI)[67].
as §2

[3] = system: MDR P. aeruginosa clinical isolate 004B1-3; experiment: Minimum inhibitory concentration (MIC) assay; type: cell-based, Pseudomonas aeruginosa; conditions: MHB, 10^5 CFU/well, peptide 0-50 μM, 37 °C, 20 h, OD600; average of n = 6 replicates from N = 3 biological experiments; asterisk = beyond 50 μM
Description: as §1, §3, §2

[4] = system: MDR P. aeruginosa clinical isolate 014B2-1; experiment: Minimum inhibitory concentration (MIC) assay; type: cell-based, Pseudomonas aeruginosa; conditions: MHB, 10^5 CFU/well, peptide 0-50 μM, 37 °C, 20 h, OD600; average of n = 6 replicates from N = 3 biological experiments; asterisk = beyond 50 μM
Description: as §1, §3, §2

[5] = system: MDR isolates of P. aeruginosa; type: cell-based, Pseudomonas aeruginosa; conditions: for average MIC against MDR P. aeruginosa isolates: average over the clinical isolates
Description: We began our investigations by testing the antimicrobial efficacy of our peptide library against P. aeruginosa, an opportunistic gram-negative bacterium found in patients with cystic fibrosis (CF)[44],[45]. MDR isolates of P. aeruginosa obtained from chronically infected CF patients were independently challenged with the peptide library using a minimum inhibitory concentration assay (MIC, defined as the lowest drug concentration required to inhibit bacterial growth). […] A similar trend is observed among the 3A analogs. At four Leu-to-Ala substitutions, activity is universally lost as the sequences no longer meet the minimum hydrophobicity threshold for spontaneous membrane insertion.
Figure 1 Minimum inhibitory concentrations (MICs) for the present peptide library against three clinical isolates of MDR P. aeruginosa and a laboratory strain of B. subtilis. Increasing concentrations of peptides were independently incubated with bacterial cells for 20 h. MIC was calculated based on bacterial growth in an untreated control and in 1% Triton. Data represent the average from n = 6 replicates from N = 3 biological experiments performed on different days; error bars depict the standard error of the mean. Asterisk denotes MIC values beyond the highest tested concentration (50 μM). […]
Three clinical isolates of MDR P. aeruginosa were previously obtained from CF patients with chronic infection at the Hospital for Sick Children [Research Ethics Board (REB) #1000019444] […] OD600 was measured at the end of the incubation period. […]

[6] = in vitro dye release; cited from earlier work
Description: In contrast, Lys-clustered PonN and PonC have been previously found to exclusively adopt random coils when exposed to liposomes composed of an approximate 3:1 ratio of PE:PG phospholipids, representative of the bacterial IM[37]. The latter configuration ostensibly deters peptide capacity for pore formation and/or carpeted assembly compared to helical amphipathic constructs such as PonAmp, which continues to display high helical propensity at both membrane interfaces. The comparatively shallow and/or transient nature of interaction between Lys-clustered constructs and the IM interface was f ...

[7] = system: LPS from P. aeruginosa 10; experiment: Dansyl-polymyxin (DPX) displacement assay; type: binding, Pseudomonas aeruginosa; conditions: 3 μg/mL LPS saturated by 2.5 μM DPX, peptide added in 1 μM increments up to 10 μM, 10 mM Tris 10 mM NaCl pH 7.4; ex 340 / em 485 nm; n = 3
Description: We then sought to evaluate whether the relative trends in antimicrobial efficacy observed between Lys-clustered versus helical amphipathic sequences against gram-negative bacteria correlate to their degree of interaction with the OM. In doing so, we tested the binding affinity of our peptide library to LPS using a Dansyl-Polymyxin (DPX) displacement assay. DPX is a fluorescently-tagged derivative of Polymyxin B that highly associates with polyanionic sites on LPS[46]. Dansyl fluorescence reaches a maximum when surrounded by a hydrophobic environment (ex. lipid A moiety of LPS), thereby enabling us to track bound and unbound states of the LPS-DPX complex. First, we empirically determined the concentration of DPX required to completely saturate a set quantity of LPS in solution (Fig. 2). Upon identifying the saturation threshold, we assessed the ability of our peptide library to outcompete for LPS binding by displacing bound DPX. […] High sequence hydrophobicity is observed to supplement peptide propensity to displace DPX as the binding affinity of PonN and PonC to LPS progressively weakens with increasing Leu-to-Ala substitutions (Fig. 3b–d).
Lyophilized stocks of LPS from P. aeruginosa 10 (#L9143) and Dansyl-labelled polymyxin B (DPX) suspended in water (#SBR00029) were purchased from Sigma. 1 mg/mL LPS was prepared in water and stored at 4 °C until use. As described in detail elsewhere, saturation of the LPS-DPX complex was first determined on a Photon Technology International fluorometer using a 1 cm cuvette. Stepwise additions of DPX (in 0.25 μM increments up to 5 μM) was added to 3 μg/mL LPS suspended in 10 mM Tris 10 mM NaCl buffer at pH 7.4. DPX fluorescence was excited at 340 nm (2 nm slit width) and emission was recorded at 485 nm (5 nm slit width).
To measure DPX displacement, peptides were independently added at 1 μM increments (up to 10 μM) to preparations containing 3 μg/mL LPS saturated by 2.5 μM DPX. DPX fluorescence was read immediately upon peptide addition. Drops in fluorescence are interpreted as the removal of DPX from LPS due to competitive binding by peptide.

human red blood cells = conditions: up to 50 μM; cited from earlier work
Description: In designing the Ponericin peptide library, our principal goal is to gauge systematically how the relative distribution of charged residues influences peptide-membrane interactions. As well, hydrophobicity is of particular interest to our investigations as earlier studies on the Ponericin W1 library reveal the highly toxic nature of native Ponericin W1 against mammalian red blood cells. Thus, stepwise Leu-to-Ala substitutions (up to four substitutions) were subsequently applied to each parent analog to simultaneously evaluate the contribution of overall sequence hydrophobicity. All peptide ...

| Substance | MIC, B. subtilis [1] | MIC, Isolate 035B7-1 [2] | MIC, Isolate 004B1-3 [3] | MIC, Isolate 014B2-1 [4] | average MIC against MDR P. aeruginosa isolates [5] | Rupture of liposome mimetics of the bacterial IM (dye release) [6] | Displacement of DPX from LPS (change in DPX fluorescence) [7] | MIC against MDR P. aeruginosa isolates ([5]; three clinical isolates from CF patients, isolate not specified, 20 h, highest tested 50 μM) | Toxicity against mammalian red blood cells (human red blood cells) |
| --- | --- | --- | --- | --- | --- | --- | --- | --- | --- |
| H-KKKKKKWAGSAAIGAALPSVVGAFQ-NH2 [PonN 4A] | 12.5 µM |  |  |  |  |  |  |  |  |
| H-KKKKKKWAGSAAIGAALPSVVGLFQ-NH2 [PonN 3A] | 8.30 µM | 16.67 µM | 4.69 µM | 23 µM |  |  |  |  |  |
| H-KKKKKKWAGSAAIGALLPSVVGLFQ-NH2 [PonN 2A] | 2.08 µM | 1.82 µM | 1.82 µM | 5.20 µM | ~ 3 μM |  |  |  |  |
| H-KKKKKKWLGSALIGALLPSVVGLFQ-NH2 [PonN] | 1.56 µM | 2.60 µM | 1.56 µM | 5.20 µM |  | more gradually | highly interrupt the LPS-DPX complex |  |  |
| H-WAGSAAIGAALPSVVGAFQKKKKKK-NH2 [PonC 4A] | 10.42 µM |  |  |  |  |  |  |  |  |
| H-WAGSAAIGAALPSVVGLFQKKKKKK-NH2 [PonC 3A] | 1.56 µM | 33.33 µM | 5.73 µM | 50 µM |  |  |  |  |  |
| H-WAGSAAIGALLPSVVGLFQKKKKKK-NH2 [PonC 2A] | 1.04 µM | 3.64 µM | 2.08 µM | 6.25 µM | ~ 4 μM |  |  |  |  |
| H-WAKKAAKIGAKALPSVVKAFKGSGQ-NH2 [PonAmp 4A] | 3.12 µM |  |  |  |  |  |  |  |  |
| H-WAKKAAKIGAKALPSVVKLFKGSGQ-NH2 [PonAmp 3A] | 0.78 µM |  |  |  |  |  |  |  |  |
| H-WAKKAAKIGAKLLPSVVKLFKGSGQ-NH2 [PonAmp 2A] | 0.85 µM | 50 µM | 11.46 µM | 50 µM |  |  |  | 50 µM |  |
| H-WLGSALIGALLPSVVGLFQKKKKKK-NH2 [PonC] | 1.30 µM | 1.56 µM | 1.30 µM | 2.86 µM |  | more gradually | highly interrupt the LPS-DPX complex |  |  |
| H-WLGSALKIGAKLLPSVVGLFKKKKQ-NH2 [Ponericin W1, reference compound] | 0.65 µM | 2.86 µM | 1.17 µM | 4.68 µM |  |  | negligible change in fluorescence |  | highly toxic |
| H-WLKKALKIGAKLLPSVVKLFKGSGQ-NH2 [PonAmp] | 0.52 µM | 2.60 µM | 1.56 µM | 3.12 µM |  | ruptured instantaneously | negligible change in fluorescence |  |  |
